Series [1] has as its system macrophage J774 cells line. Briefly: Cytotoxicity assay (MTT) in macrophage J774 cells. It counts as cell-based. The settings on record: J774 cells, 24 hrs, MTT. The protocol: The study was carried out using macrophage J774 cells line (ATCC-USA). Cells were grown in Rosewell Park Memorial Institute Medium (RPMI) containing 10% fetal calf serum (FCS) and supplemented with 75 mg/liter penicillin, 100 mg/liter streptomycin, 110 mg/liter Sodium pyruvate, 2.38 gm/liter HEPES, 0.05 mM 2 β-mercaptoethanol, and 2 gm/liter NaHCO3, in a humidified atmosphere in 5% CO2 at 37° C., and were sub-cultured at 1:4 ratio once a week.
Cells were plated at a density of 3×10^4 cells/cm^2 and maintained in culture medium for 12 hours. Cells were seeded onto 96-well flat bottom plates and FCS was reduced to 5% for the experiment. Stock solutions of compounds IA1 to IIC10 were prepared fresh to avoid oxidation. Cells were incubated with the compounds (40 μg/ml) for 24 hrs.
After the completion of incubation, the medium was removed and cell viability was evaluated by assaying for the ability of functional mitochondria to catalyze the reduction of 3-(4,5-dimethylthiazol-2-yl)-2,5-diphenyltetrazolium bromide (MTT) to form formazan salt by mitochondrial dehydrogenases, and determined by Elisa reader at 450 nm (Multiskan Spectrum; Thermo Electron Corporation, USA). Percentage cytotoxicity was calculated with respect to the untreated cells.

Series [2] has as its system M. tuberculosis H37Rv (ATCC 27294). Briefly: MIC by broth dilution method, M. tuberculosis H37Rv. The series is classed as cell-based. The settings on record: Mycobacterium tuberculosis, 504 h. On the technique in general: In broth dilution the organism is exposed to a series of concentrations in liquid medium.
Where [3] appears, read: broth dilution, 3 weeks, read-out: MIC M. tb H37Rv.
Where [4] appears, read: text summary: sensitive H37Rv as well as MDR and XDR strains of M. tuberculosis, read-out: MIC value.

Converted amounts (≈) assume the structure as drawn. Read-outs that look alike come from different tables or passages of the source.

As usually defined, the MIC is the lowest concentration that inhibits growth of the organism.

For the molecule `C[C@]1(COc2ccc(-n3cc(-c4ccccc4F)nn3)cc2)Cn2cc([N+](=O)[O-])nc2O1` [IA4, (R)-2-{4-[4-(2-fluorophenyl)-1H-1,2,3-triazol-1-yl]phenoxymethyl}-2,3-dihydro-2-methyl-6-nitroimidazo[2,1-b]oxazole], the Cytotoxicity in series [1] is over 40 µg/mL. Moreover, in series [2] (setting [3]), the MIC came to 1 µg/mL (≈ 2.29 µM).

In series [1], `C[C@]1(COc2ccc(-n3cc(-c4ccc(F)cc4F)nn3)cc2)Cn2cc([N+](=O)[O-])nc2O1` [IA7, (R)-2-{4-[4-(2,4-difluorophenyl)-1H-1,2,3-triazol-1-yl]phenoxymethyl}-2,3-dihydro-2-methyl-6-nitroimidazo[2,1-b]oxazole] showed a Cytotoxicity of over 40 µg/mL. The minimal inhibitory concentration (MIC) in series [2] (setting [3]) stood at 2 µg/mL (≈ 4.4 µM).

With `Cc1ccc(-c2cn(-c3ccc(OC[C@@]4(C)Cn5cc([N+](=O)[O-])nc5O4)cc3)nn2)cc1` [IA8, (R)-2-{4-[4-(4-methylphenyl)-1H-1,2,3-triazol-1-yl]phenoxymethyl}-2,3-dihydro-2-methyl-6-nitroimidazo[2,1-b]oxazole], the Cytotoxicity in series [1] was over 40 µg/mL. The MIC in series [2] (setting [3]) was determined as 1 µg/mL (≈ 2.31 µM).

Molecule `CC(C)c1ccc(-c2cn(-c3ccc(OC[C@@]4(C)Cn5cc([N+](=O)[O-])nc5O4)cc3)nn2)cc1` [IA9, (R)-2-{4-[4-(4-isopropylphenyl)-1H-1,2,3-triazol-1-yl]phenoxymethyl}-2,3-dihydro-2-methyl-6-nitroimidazo[2,1-b]oxazole] registered a Cytotoxicity in series [1] of over 40 µg/mL. For the same molecule, the minimum inhibitory concentration (MIC) in series [2] (setting [3]) turned out to be 1 µg/mL (≈ 2.17 µM).

As for `C[C@]1(COc2ccc(-n3cc(-c4cccc(F)c4)nn3)cc2)Cn2cc([N+](=O)[O-])nc2O1` [IA10, (R)-2-{4-[4-(3-fluorophenyl)-1H-1,2,3-triazol-1-yl]phenoxymethyl}-2,3-dihydro-2-methyl-6-nitroimidazo[2,1-b]oxazole], the Cytotoxicity in series [1] was over 40 µg/mL. In addition, the MIC in series [2] (setting [3]) came to 2 µg/mL (≈ 4.58 µM).

`CCCCCCCc1cn(-c2ccc(OC[C@@]3(C)Cn4cc([N+](=O)[O-])nc4O3)cc2)nn1` [IA16, (R)-2-{4-[4-heptyl-1H-1,2,3-triazol-1-yl]phenoxymethyl}-2,3-dihydro-2-methyl-6-nitroimidazo[2,1-b]oxazole]: in series [1], the Cytotoxicity is over 40 µg/mL. The MIC in series [2] (setting [3]) stood at 4 µg/mL (≈ 9.08 µM).

Turning to `C[C@]1(COc2cccc(-n3cc(-c4ccc(F)cc4)nn3)c2)Cn2cc([N+](=O)[O-])nc2O1` [IA17, (R)-2-{3-[4-(4-fluorophenyl)-1H-1,2,3-triazol-1-yl]phenoxymethyl}-2,3-dihydro-2-methyl-6-nitroimidazo[2,1-b]oxazole], the Cytotoxicity in series [1] was over 40 µg/mL. The minimal inhibitory concentration (MIC) in series [2] (setting [3]) was 2 µg/mL (≈ 4.58 µM).

With `C[C@]1(COc2cccc(-n3cc(-c4ccc(C(F)(F)F)cc4)nn3)c2)Cn2cc([N+](=O)[O-])nc2O1` [IA18, (R)-2-{3-[4-(4-trifluoromethylphenyl)-1H-1,2,3-triazol-1-yl]phenoxymethyl}-2,3-dihydro-2-methyl-6-nitroimidazo[2,1-b]oxazole], the Cytotoxicity in series [1] is over 40 µg/mL. Also, the minimum inhibitory concentration (MIC) in series [2] (setting [3]) came to 2 µg/mL (≈ 4.11 µM).

`C[C@]1(COc2cccc(-n3cc(-c4ccc(OC(F)(F)F)cc4)nn3)c2)Cn2cc([N+](=O)[O-])nc2O1` [IA19, (R)-2-{3-[4-(4-trifluoromethoxyphenyl)-1H-1,2,3-triazol-1-yl]phenoxymethyl}-2,3-dihydro-2-methyl-6-nitroimidazo[2,1-b]oxazole]: the Cytotoxicity in series [1] is over 40 µg/mL. In addition, the MIC in series [2] (setting [3]) amounted to 4 µg/mL (≈ 7.96 µM).

On to `C[C@]1(COc2cccc(-n3cc(-c4ccc(F)cc4F)nn3)c2)Cn2cc([N+](=O)[O-])nc2O1` [IA20, (R)-2-{3-[4-(2,4-difluorophenyl)-1H-1,2,3-triazol-1-yl]phenoxymethyl}-2,3-dihydro-2-methyl-6-nitroimidazo[2,1-b]oxazole], for which, in series [1], the Cytotoxicity is over 40 µg/mL. Also, the minimum inhibitory concentration (MIC) in series [2] (setting [3]) was 4 µg/mL (≈ 8.8 µM).

In turn, `C[C@]1(COc2ccccc2-n2cc(-c3ccc(F)cc3)nn2)Cn2cc([N+](=O)[O-])nc2O1` [IA21, (R)-2-{2-[4-(4-fluorophenyl)-1H-1,2,3-triazol-1-yl]phenoxymethyl}-2,3-dihydro-2-methyl-6-nitroimidazo[2,1-b]oxazole] yielded a Cytotoxicity in series [1] of over 40 µg/mL. Further, the minimal inhibitory concentration (MIC) in series [2] (setting [3]) was 1 µg/mL (≈ 2.29 µM).

Molecule `C[C@]1(COc2ccccc2-n2cc(-c3ccc(C(F)(F)F)cc3)nn2)Cn2cc([N+](=O)[O-])nc2O1` [IA22, (R)-2-{2-[4-(4-trifluoromethylphenyl)-1H-1,2,3-triazol-1-yl]phenoxymethyl}-2,3-dihydro-2-methyl-6-nitroimidazo[2,1-b]oxazole] registered a Cytotoxicity in series [1] of over 40 µg/mL. Also, the minimal inhibitory concentration (MIC) in series [2] (setting [3]) stood at 4 µg/mL (≈ 8.22 µM).

In series [1], `C[C@]1(COc2ccccc2-n2cc(-c3ccc(OC(F)(F)F)cc3)nn2)Cn2cc([N+](=O)[O-])nc2O1` [IA23, (R)-2-{2-[4-(4-trifluoromethoxyphenyl)-1H-1,2,3-triazol-1-yl]phenoxymethyl}-2,3-dihydro-2-methyl-6-nitroimidazo[2,1-b]oxazole] gave a Cytotoxicity of over 40 µg/mL. Besides, the minimum inhibitory concentration (MIC) in series [2] (setting [3]) is 4 µg/mL (≈ 7.96 µM).

As for `C[C@]1(COc2cccc(-n3cc(COc4ccc(C(F)(F)F)cc4)nn3)c2)Cn2cc([N+](=O)[O-])nc2O1` [IA35], the Cytotoxicity in series [1] was over 40 µg/mL. The minimal inhibitory concentration (MIC) in series [2] (setting [3]) was found to be 2 µg/mL (≈ 3.87 µM).

Take `C[C@]1(COc2cccc(-n3cc(COc4ccccc4F)nn3)c2)Cn2cc([N+](=O)[O-])nc2O1` [IA36]: the Cytotoxicity in series [1] is over 40 µg/mL. For the same molecule, the minimal inhibitory concentration (MIC) in series [2] (setting [3]) worked out at 2 µg/mL (≈ 4.29 µM).

In series [1], `Cc1ccc(OCc2cn(-c3cccc(OC[C@@]4(C)Cn5cc([N+](=O)[O-])nc5O4)c3)nn2)cc1` [IA37] returned a Cytotoxicity of over 40 µg/mL. Also, in series [2] (setting [3]), the minimum inhibitory concentration (MIC) stood at 4 µg/mL (≈ 8.65 µM).

Take `CC(C)c1ccc(OCc2cn(-c3cccc(OC[C@@]4(C)Cn5cc([N+](=O)[O-])nc5O4)c3)nn2)cc1` [IA38]: in series [1], the Cytotoxicity is over 40 µg/mL. In addition, the MIC in series [2] (setting [3]) is 4 µg/mL (≈ 8.15 µM).

For `C[C@]1(COc2ccc(-n3nnnc3-c3ccccc3)cc2)Cn2cc([N+](=O)[O-])nc2O1` [IB1, (R)-2-{4-[5-phenyl-1H-tetrazol-1-yl]phenoxymethyl}-2,3-dihydro-2-methyl-6-nitroimidazo[2,1-b]oxazole], in series [1], the Cytotoxicity is over 40 µg/mL. Besides, the figures for the MIC in series [2] (setting [3]) and in series [2] (setting [4]) were 2 µg/mL (≈ 4.77 µM) and 1 to 4 µg/mL (≈ 2.38 to 9.54 µM), respectively.

As for `C[C@]1(COc2ccc(-n3nnnc3-c3ccc(OC(F)(F)F)cc3)cc2)Cn2cc([N+](=O)[O-])nc2O1` [IB2, (R)-2-{4-[5-(4-trifluoromethoxyphenyl)-1H-tetrazol-1-yl]phenoxymethyl}-2,3-dihydro-2-methyl-6-nitroimidazo[2,1-b]oxazole], the Cytotoxicity in series [1] is over 40 µg/mL. Moreover, the minimum inhibitory concentration (MIC) in series [2] (setting [3]) is 2 µg/mL (≈ 3.97 µM); in series [2] (setting [4]) it was 1 to 4 µg/mL (≈ 1.99 to 7.95 µM).

In series [1], `Cc1ccc(-c2nnnn2-c2ccc(OC[C@@]3(C)Cn4cc([N+](=O)[O-])nc4O3)cc2)cc1` [IB3, (R)-2-{4-[5-(4-methylphenyl)-1H-tetrazol-1-yl]phenoxymethyl}-2,3-dihydro-2-methyl-6-nitroimidazo[2,1-b]oxazole] had a Cytotoxicity of over 40 µg/mL. Moreover, the minimal inhibitory concentration (MIC) was 4 µg/mL (≈ 9.23 µM) in series [2] (setting [3]) and 1 to 4 µg/mL (≈ 2.31 to 9.23 µM) in series [2] (setting [4]).

In turn, `C[C@]1(COc2ccc(-n3nnnc3-c3ccc(F)cc3)cc2)Cn2cc([N+](=O)[O-])nc2O1` [IB4, (R)-2-{4-[5-(4-fluorophenyl)-1H-tetrazol-1-yl]phenoxymethyl}-2,3-dihydro-2-methyl-6-nitroimidazo[2,1-b]oxazole] gave a Cytotoxicity in series [1] of over 40 µg/mL. For the same molecule, the minimum inhibitory concentration (MIC) in series [2] (setting [3]) is 4 µg/mL (≈ 9.15 µM); in series [2] (setting [4]) it was 1 to 4 µg/mL (≈ 2.29 to 9.15 µM).

Regarding `C[C@]1(COc2ccc(-n3nnnc3-c3ccc(C(F)(F)F)cc3)cc2)Cn2cc([N+](=O)[O-])nc2O1` [IB5, (R)-2-{4-[5-(4-trifluoromethylphenyl)-1H-tetrazol-1-yl]phenoxymethyl}-2,3-dihydro-2-methyl-6-nitroimidazo[2,1-b]oxazole], the Cytotoxicity in series [1] was over 40 µg/mL. Also, the figures for the minimum inhibitory concentration (MIC) in series [2] (setting [3]) and in series [2] (setting [4]) were 1 µg/mL (≈ 2.05 µM) and 1 to 4 µg/mL (≈ 2.05 to 8.21 µM), respectively.

For `CCc1ccc(-c2nnnn2-c2ccc(OC[C@@]3(C)Cn4cc([N+](=O)[O-])nc4O3)cc2)cc1` [IB6, (R)-2-{4-[5-(4-ethylphenyl)-1H-tetrazol-1-yl]phenoxymethyl}-2,3-dihydro-2-methyl-6-nitroimidazo[2,1-b]oxazole], the Cytotoxicity in series [1] is over 40 µg/mL. Also, the results for the minimal inhibitory concentration (MIC) in series [2] (setting [3]) and in series [2] (setting [4]) were 2 µg/mL (≈ 4.47 µM) and 1 to 4 µg/mL (≈ 2.23 to 8.94 µM), respectively.

`C[C@]1(COc2ccc(-n3nnnc3Oc3ccc(F)cc3)cc2)Cn2cc([N+](=O)[O-])nc2O1` [IB7, (R)-2-{4-[5-(4-fluorophenoxy)-1H-tetrazol-1-yl]phenoxymethyl}-2,3-dihydro-2-methyl-6-nitroimidazo[2,1-b]oxazole]: the Cytotoxicity in series [1] is over 40 µg/mL. The minimum inhibitory concentration (MIC) in series [2] (setting [3]) is 2 µg/mL (≈ 4.41 µM); in series [2] (setting [4]), 1 to 4 µg/mL (≈ 2.21 to 8.82 µM).

Take `C[C@]1(COc2ccc(-n3nnnc3Oc3ccc(C(F)(F)F)cc3)cc2)Cn2cc([N+](=O)[O-])nc2O1` [IB8, (R)-2-{4-[5-(4-trifluoromethylphenoxy)-1H-tetrazol-1-yl]phenoxymethyl}-2,3-dihydro-2-methyl-6-nitroimidazo[2,1-b]oxazole]: the Cytotoxicity in series [1] was over 40 µg/mL. Also, the minimum inhibitory concentration (MIC) in series [2] (setting [3]) is 4 µg/mL (≈ 7.95 µM); in series [2] (setting [4]), 1 to 4 µg/mL (≈ 1.99 to 7.95 µM).

Source of the values: US9845330B2, “6-nitro-2,3-dihydroimidazo[2,1-b]oxazoles and a process for the preparation thereof” (priority 2013, dated 2017).
